Experimental findings from patent US8911710B2, “Intravascular contrast agents” (Agency for Science, Technology and Research, priority 2008, dated 2014) are described below.

The data set is described as follows: Relaxivity measurement (T1 by inversion recovery spin echo in aqueous phantoms, Varian 9.4T MRI system). It counts as physicochemical. Conditions: 25° C., in H2O. Here is the method:
Relaxivity measurement and MRI were conducted on a Varian 9.4T MRI system (Palo Alto, Calif., USA). T1 was measured by inversion recovery spin echo in aqueous phantoms with concentrations 0.4, 0.2 0.1, 0.05, 0.025, 0.0125 and 0.00625 mM Gd. In vivo study was conducted on Wistar rats (male, weight 320-340 g) under 2% isoflurane anesthesia. CAs were injected (dosage: 0.04 mmol Gd/kg body weight) through tail vein. T1-weighted images were acquired every 6.4 s for 48 min with T1-weighted gradient echo sequence (TR/TE=50/3 ms, flip-angle=20 degree, resolution=[…], thickness=2 mm).

On to `O=C([O-])CN1CCN(CC(=O)[O-])CCN(CC(=O)O)CCN(CC(=O)[O-])CC1.[Gd+3]` [Gd-DOTA], for which the “relaxivity r1” value stood at 3.9 mM⁻¹ s⁻¹.

Turning to `O=C([O-])CN(CCN(CC(=O)[O-])CC(=O)O)CCN(CC(=O)[O-])CC(=O)O.[Gd+3]` [Gd-DTPA], the “relaxivity r1” value stood at 4.1 mM⁻¹ s⁻¹.
